# In patent US12492210B2, “Tricyclic compounds and their use” (HUTCHISON MEDIPHARMA LIMITED, priority 2019, dated 2025):
# How the values were obtained:
# [1] = target: T1, MAPK1(ERK2) enzyme (Homo sapiens, UniProt P28482); assay: Z-Lyte Kinase Assay of ERK2; assay type: biochemical; settings: read-out: Example 18 IC50
# T1 construct: purchased Invitrogen PV3313
# In short: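 FRET-based Z-LYTE assay using ERK2 kinase with Ser/Thr3 peptide; compound tested at 0.00046–1 μM final in 2% DMSO. Kinase reaction ran 1 h at 25-30° C, followed by 1 h development. The coumarin/fluorescein emission ratio (445/520 nm) gave % phosphorylation, and IC50 was fitted from inhibition relative to uninhibited control.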
# [2] = system: p-RSK (Thr359) in colo205 cells; assay: p-RSK (Thr359) Acumen Assay in Colo205; assay type: cell-based; settings: Homo sapiens, COLO 205, 1 hour compound incubation, read-out: Example 19 IC50
# In short: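 Colo205 cells (4000/well, seeded overnight in 10% FBS) were exposed 1 hour at 37° C to compound added from a 3–0.001 μM dilution series in 5% DMSO. Cells were then fixed, permeabilised and immunostained for p-RSK Thr359, with PI counterstain. Acumen cytometry gave the percentage of positive cells, normalised to untreated wells and 3 uM GDC0994 wells, for the IC50 fit.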
# T1 sequence (P28482 whole entry): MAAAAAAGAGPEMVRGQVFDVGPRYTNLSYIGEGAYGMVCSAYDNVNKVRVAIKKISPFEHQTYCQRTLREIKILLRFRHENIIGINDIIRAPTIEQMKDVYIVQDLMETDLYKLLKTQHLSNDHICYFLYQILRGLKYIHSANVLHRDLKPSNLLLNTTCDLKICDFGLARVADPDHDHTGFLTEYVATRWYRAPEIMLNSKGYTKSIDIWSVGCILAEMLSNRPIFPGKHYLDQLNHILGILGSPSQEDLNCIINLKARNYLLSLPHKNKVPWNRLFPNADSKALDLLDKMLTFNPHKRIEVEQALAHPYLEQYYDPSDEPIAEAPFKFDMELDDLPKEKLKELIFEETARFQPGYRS
IC50 [1] [nM],IC50 [2] [nM],Compound
≤ 5,≤ 100,"Cn1nccc1Nc1cc(-c2cc3n(c2)CC(F)(F)Cn2c(Cn4cccc4C#N)nnc2-3)c(Cl)cn1 [Compound 217, 1-((10-(5-chloro-2-((1-methyl-1H-pyrazol-5-yl)amino)pyridin-4-yl)-6,6-difluoro-6,7-dihydro-5H-pyrrolo[1,2-a][1,2,4]triazolo[3,4-c][1,4]diazepin-3-yl)methyl)-1H-pyrrole-2-carbonitrile]"
> 10,≤ 100,Cn1nccc1Nc1cc(-c2cc3n(c2)C[C@H](CF)n2c-3nnc2C(F)(F)c2ccccc2Cl)c(Cl)cn1 [Compound 206]
≤ 5,≤ 100,Cc1cn2cc(-c3ccnc(Nc4ccnn4C)n3)cc2c2nnc(C3(C(F)(F)F)CCC3)n12 [Compound 232]
≤ 5,≤ 100,"Cn1nccc1Nc1cc(-c2cc3n(c2)CC(CO)Cn2c-3nnc2C2(C(F)(F)F)CCC2)c(Cl)cn1 (stereo not drawn) [Compound 299, (10-(5-chloro-2-((1-methyl-1H-pyrazol-5-yl)amino)pyridin-4-yl)-3-(1-(trifluoromethyl)cyclobutyl)-6,7-dihydro-5H-pyrrolo[1,2-a][1,2,4]triazolo[3,4-c][1,4]diazepin-6-yl)methanol]"
> 10,≤ 100,FC[C@H]1Cn2cc(-c3cc(NN4CCOCC4)ncc3Cl)cc2-c2nnc(C(F)(F)c3ccccc3F)n21 [Compound 274]
≤ 5,≤ 100,"Cc1cc(Nc2ncc(C)c(-c3cc4n(c3)CCCn3c-4nnc3C3(C(F)(F)F)CCC3)n2)ccn1 [Compound 281, 5-methyl-N-(2-methylpyridin-4-yl)-4-(3-(1-(trifluoromethyl)cyclobutyl)-6,7-dihydro-5H-pyrrolo[1,2-a][1,2,4]triazolo[3,4-c][1,4]diazepin-10-yl)pyrimidin-2-amine]"
5 to 10,≤ 100,Cn1nccc1Nc1cc(-c2cc3n(c2)C[C@H](Cc2ccccc2)n2c(CCC(F)(F)F)nnc2-3)c(Cl)cn1 [Compound 203]
≤ 5,≤ 100,Cc1cnc(Nc2ccnn2C)nc1-c1cc2c3nnc(C4(C(F)(F)F)CCC4)n3ccn2c1 [Compound 231]
5 to 10,> 100,COc1cnc(Nc2ccnn2C)cc1-c1cc2n(c1)CC(F)(F)Cn1c-2nnc1C1(C(F)(F)F)CCC1 [Compound 214]
≤ 5,≤ 100,Cn1nccc1Nc1cc(-c2cc3n(c2)C[C@H](CF)n2c-3nnc2C(F)(F)c2ncccc2Cl)c(Cl)cn1 [Compound 207]
> 10,≤ 100,Cc1cnc(Nc2ccnn2CCCO)nc1-c1cc2n(c1)C[C@H](C)n1c-2nnc1C(F)(F)c1ccccc1F [Compound 297]
≤ 5,≤ 100,"COC[C@H]1Cn2cc(-c3nc(Nc4ccnn4C)ncc3C)nc2-c2nnc(C(F)(F)c3ccccc3Cl)n21 [Compound 220, (R)-4-(3-((2-chlorophenyl)difluoromethyl)-5-(methoxymethyl)-5,6-dihydroimidazo[1,2-a][1,2,4]triazolo[3,4-c]pyrazin-9-yl)-5-methyl-N-(1-methyl-1H-pyrazol-5-yl)pyrimidin-2-amine]"
≤ 5,> 100,Cc1cc(Nc2ncc(C)c(-c3cc4n(c3)CCCn3c-4nnc3C3(C(F)(F)F)CCC3)n2)on1 [Compound 284]
≤ 5,≤ 100,Cc1cnc(Nc2ccnn2C)nc1-c1cc2c3nnc(C4(C(F)(F)F)CCC4)n3c(C)cn2c1 [Compound 236]
5 to 10,> 100,Cn1nccc1Nc1cc(-c2cc3n(c2)C(C(F)F)Cn2c-3nnc2C(F)(F)C(F)F)c(Cl)cn1 (stereo not drawn) [Compound 260]
5 to 10,≤ 100,Cn1nccc1Nc1cc(-c2cc3n(c2)CC(C)(C)n2c-3nnc2C(F)(F)C(F)F)c(Cl)cn1 [Compound 249]
≤ 5,> 100,Cn1nccc1Nc1cc(-c2cc3n(c2)CCCn2c-3nnc2C2(C(F)(F)F)CCC2)c(F)cn1 [Compound 241]

# More lines, now with the values behind:
Compound,IC50 [1] [nM],IC50 [2] [nM]
Cc1cnc(Nc2ccnn2C)nc1-c1cc2n(c1)C[C@H](C)n1c-2nnc1C(F)(F)c1ccccc1F [Compound 88],≤ 5,≤ 100
Cn1nccc1Nc1cc(-c2cc3n(c2)C[C@H](F)Cn2c-3nnc2C2(C(F)(F)F)CCC2)c(Cl)cn1 [Compound 123],≤ 5,≤ 100
Cn1nccc1Nc1cc(-c2cc3n(c2)CCn2c-3nnc2C2(C(F)(F)F)CCC2)c(Cl)cn1 [Compound 20],≤ 5,≤ 100
Cn1nccc1Nc1cc(-c2cc3n(c2)C[C@H](CF)n2c-3nnc2C(F)(F)c2ccccc2F)c(Cl)cn1 [Compound 190],> 10,≤ 100
Cn1nccc1Nc1cc(-c2cc3n(c2)C[C@H](C(F)F)n2c-3nnc2C(F)(F)c2ccccc2F)c(F)cn1 [Compound 196],5 to 10,≤ 100
CCC(F)(F)c1nnc2n1[C@@H](CF)Cn1cc(-c3cc(Nc4ccnn4C)ncc3Cl)cc1-2 [Compound 61],≤ 5,≤ 100
Cc1cnc(Nc2ccnn2C)nc1-c1cc2n(c1)[C@@H](C)Cn1c-2nnc1C1(C(F)(F)F)CCC1 [Compound 47],≤ 5,≤ 100
"C[C@H](Oc1ccccc1F)c1nnc2c3cc(-c4ccnc(Nc5ccnn5C)n4)cn3ccn12 [Compound 39, (S)-4-(3-(1-(2-fluorophenoxy)ethyl)pyrrolo[1,2-a][1,2,4]triazolo[3,4-c]pyrazin-9-yl)-N-(1-methyl-1H-pyrazol-5-yl)pyrimidin-2-amine]",5 to 10,≤ 100
CO[C@H]1Cn2cc(-c3cc(Nc4ccnn4C)ncc3Cl)cc2-c2nnc(C3(C(F)(F)F)CCC3)n2C1 [Compound 165],5 to 10,≤ 100
Cc1cnc(Nc2ccnn2C)cc1-c1cc2n(c1)C[C@H](CF)n1c-2nnc1C(F)(F)n1cc(Cl)cn1 [Compound 153],≤ 5,≤ 100
Cc1cnc(Nc2ccnn2C)cc1-c1cc2n(c1)C[C@H](CF)n1c-2nnc1C(F)(F)c1cccc(F)c1F [Compound 180],> 10,≤ 100
Cn1nccc1Nc1cc(-c2cc3n(c2)C[C@H](CF)n2c-3nnc2C(F)(F)n2cc(Cl)cn2)c(Cl)cn1 [Compound 200],5 to 10,≤ 100
Cc1cnc(Nc2ccnn2C)nc1-c1cc2n(c1)CCn1c-2nnc1C1(C(F)(F)F)CCC1 [Compound 5],≤ 5,> 100
C[C@H]1Cn2cc(-c3ccnc(Nc4ccnn4C)c3)cc2-c2nnc(C(F)(F)c3ccccc3Cl)n21 [Compound 91],5 to 10,≤ 100
Cc1cnc(Nc2ccnn2C)cc1-c1cc2n(c1)C[C@H](CF)n1c-2nnc1C(F)(F)c1ccccc1F [Compound 126],5 to 10,≤ 100
Cc1cnc(Nc2ccnn2C)nc1-c1cc2n(c1)[C@H](C)Cn1c-2nnc1C1(C(F)(F)F)CCC1 [Compound 48],≤ 5,> 100

Compound,IC50 [1] [nM],IC50 [2] [nM]
Cn1nccc1Nc1cc(-c2cc3n(c2)CC(F)(F)Cn2c-3nnc2C2(C(F)F)COC2)c(Cl)cn1 [Compound 32],≤ 5,≤ 100
Cn1nccc1Nc1cc(-c2cc3n(c2)CC(F)(F)Cn2c(Cn4cc(F)cn4)nnc2-3)c(Cl)cn1 [Compound 106],≤ 5,≤ 100
Cc1cnc(Nc2ccnn2C)nc1-c1cc2n(c1)CCn1c(COc3ccccc3F)nnc1-2 [Compound 7],≤ 5,≤ 100
Cn1nccc1Nc1nccc(-c2cc3n(c2)CCCn2c(CSc4ccccc4F)nnc2-3)n1 [Compound 19],≤ 5,≤ 100
Cn1nccc1Nc1cc(-c2cc3n(c2)CCCn2c-3nnc2N2CCCc3ccccc32)c(Cl)cn1 [Compound 54],5 to 10,≤ 100
Cn1nccc1Nc1cc(-c2cc3n(c2)C[C@H](CF)n2c(Cc4ccccc4F)nnc2-3)c(Cl)cn1 [Compound 92],5 to 10,≤ 100
"Cn1nccc1Nc1cc(-c2cc3n(c2)CCCn2c-3nnc2N2CCc3ccccc32)c(Cl)cn1 [Compound 53, 5-Chloro-4-(3-(indolin-1-yl)-6,7-dihydro-5H-pyrrolo[1,2-a][1,2,4]triazolo[3,4-c][1,4]diazepin-10-yl)-N-(1-methyl-1H-pyrazol-5-yl)pyridin-2-amine]",5 to 10,> 100
Cc1cnc(Nc2ccnn2C)cc1-c1cc2n(c1)C[C@H](CF)n1c-2nnc1C(F)(F)Oc1ccccc1F [Compound 170],> 10,> 100
Cc1cnc(Nc2ccnn2C)nc1-c1cc2n(c1)C[C@H](C)n1c-2nnc1C(F)(F)n1cc(Cl)cn1 [Compound 102],≤ 5,≤ 100
Cn1nccc1Nc1cc(-c2cc3n(c2)CCCn2c-3nnc2C2(C(F)F)CC2)c(Cl)cn1 [Compound 59],≤ 5,≤ 100
Cc1cnc(Nc2ccnn2C)nc1-c1cc2c3nnc(C4(C(F)F)CCC4)n3ccn2c1 [Compound 45],≤ 5,≤ 100
C[C@H]1Cn2cc(-c3ccnc(Nc4ccnn4C)n3)cc2-c2nnc(C(F)(F)c3ccccc3Cl)n21 [Compound 95],5 to 10,≤ 100
Cc1cnc(Nc2ccnn2C)cc1-c1cc2n(c1)C[C@H](CF)n1c-2nnc1C(F)(F)c1ncccc1F [Compound 133],≤ 5,≤ 100
Cc1cnc(Nc2ccnn2C)cc1-c1cc2n(c1)CC1(CC1)Cn1c-2nnc1C(F)(F)C(F)F [Compound 66],≤ 5,≤ 100
Cn1nccc1Nc1cc(-c2cc3n(c2)C[C@H](CF)n2c-3nnc2C(F)(F)c2ccccc2F)ccn1 [Compound 96],5 to 10,≤ 100
